Assay results as given in patent US7988972B2, “Immunoreactive peptides from Epstein-Barr virus” (Ortho-Clinical Diagnostics, Inc., priority 1993, dated 2011).

Key:
[1] = system: EA reactive antibody (IgG) in infectious mononucleosis (IM) sera; test: ELISA, EA peptides with EBV infectious mononucleosis sera; assay type: binding, human; conditions: EA positive EBV IM acute serum
Protocol: (§1) ELISA. The ELISA for measuring specific antibodies to p17, p50 or to the synthetic peptides was performed as previously described in detail (Luka et al., J. Immunol. Methods, 67:145-156, 1984). Aliquots of different antigen concentrations were diluted in 0.5M Na2CO3 buffer, pH 9.5, added to wells in polystyrene microtiter plates (Linbro) and the plates incubated overnight at 4° C. Following this incubation period, the plates were washed 5× with Tris-HCl, pH 7.4, containing 0.05% Tween 20, 50 mM NaCl and 100 mg per liter albumin (Sigma) and dried for 20 minutes at room temperature. The plates were screened with different anti-EA-R or EA-D antibody positive human sera and the monoclonal antibody to p17 or p50 to identify the optimal concentration of antigen to be used in the serological studies. Alkaline-phosphatase-labelled goat anti-human IgG (Sigma) or goat anti-mouse IgG (Sigma) was used as the indicator system.
(§2) For the testing of human sera for antibodies to native p17, p50 or to the synthetic peptides, sera were diluted 1:10 in ELISA buffer, added in 0.1 ml volumes to wells coated with optimal concentrations of antigen and the plates were incubated for 60 minutes at room temperature. After 4 washes with ELISA buffer, 100 μl of alkaline phosphatase-labelled goat anti-human IgG in ELISA buffer were added to each well and the plates were incubated at room temperature for 1 hour. Following four more washes in buffer, the enzyme reaction was performed by dissolving 1 mg per ml of Sigma alkaline phosphatase substrate in 1M diethanolamine buffer, pH 10.4, containing 1 mM MgCl2 and 0.1 mM ZnCl2, and 100 μl of the mixture was then added to each well. The reaction was allowed to proceed for 30 minutes at 37° C. and then the plates were screened directly with a microplate reader, TITERTEK MULTISKAN MC (Flow), at 420 nm. Readings above 0.1 which was 2× the background noted with antibody-negative sera were considered positive reactions.
When the entire 50.10 peptide was tested with 1M sera, 24/32 or 75% of the sera contained EA-D reactive antibody (IgG) (Table 4).
Serological reactivity of EA peptides p17.1 and p50.1 which contained additional amino acids on their amino and carboxy termini was tested on EBV IM acute sera which was EA positive. The ELISA results shown in Table 5 indicate that the additional amino acids improved reactivity for both EA peptides.
Immunofluorescence assays (IFA) were performed as described by Henle, et al. (Int. J. Cancer, 8:272-282, 1971). Western blot analysis was done by methods commonly used in the art (See for example, Coligan, et al., Current Protocols in Immunology, Wiley Interscience, 1991, Unit 12). Samples of EBV-infected cell lysates (P3HR-1) were tested with human whole antiserum from positive humans (Pearson, et al., Virology, 160:151-161, 1987). A comparison was made between EA serology by IFA, using the EA-D 50.1 peptide antisera, and ELISA serology using 50.1 peptide (see Example 2).

[2] = system: peripheral blood lymphocytes (PBL); test: Proliferation assay of peripheral blood lymphocytes (3H-thymidine incorporation); assay type: cell-based, human; conditions: for proliferation response: PBL from 3 anti-VCA-positive anti-EA-antibody-negative individuals; for 3H-thymidine Incorporation (cpm + S.D.) / S.I. (stimulation index): PBL from anti-VCA-positive, anti-EA-positive donor, 5 days
Protocol: Proliferation assays. T-cell proliferation assays using the native p17 or p50 polypeptide or the synthetic peptides were performed as previously described in detail (Pothen et al., Int. J. Cancer, 49:656-660, 1991). Briefly, peripheral blood lymphocytes (PBLO from sero-positive donors were isolated on FICOLL-HYPAQUE gradients, washed and resuspended in RPMI 1640 media containing 10% heat-inactivated human A^+ serum from a sero-negative donor. Cells (1×10^5 per 0.1 ml) were then added to each well in 96-well, round-bottomed tissue culture plates (Costar, Cambridge, Mass.). The different antigen preparations were added to triplicate wells in 0.1 ml volumes and the plates were incubated at 37° C. for 5 days. ^3H-thymidine (5 Ci per mM) was added at a concentration of 1 μCi per well over the last 4 hours of culture. The cells were then harvested with a multichannel sample harvester and ^3H-thymidine incorporation was determined using a Beckman Model LS 3801 liquid scintillation counter. Stimulation indices for the test antigens were calculated by dividing the average counts per minute (CPMO for the test antigens by the average CPM of the medium control wells.
PBL from asymptomatic EBV-infected individuals were tested for response to any of the three p17 synthetic peptides (Table 1) by a proliferation assay using lymphocytes previously shown to proliferate in the presence of native p17 (Pothen et al., Int. J. Cancer, 49:656-660, 1991). Different concentrations of the synthetic peptides were incubated with the PBL for 5 days and then proliferation was assayed by the incorporation of ^3H-thymidine. The native p17 purified from activated P3HR-1 cells gave a S.I. of 15.8 in this experiment. […] Neither of the other synthetic peptides induced a proliferation response at the concentrations tested.
PBL from 3 anti-VCA-positive anti-EA-antibody-negative individuals were also examined in the proliferation assay with the three synthetic peptides. Again, all 3 PBL preparations responded to the highest concentrations of p17.1 with S.I.'s ranging from 3.5-11. Two of the preparations (FIG. 2A,C) also proliferated in the presence of lower concentrations of antigen with S.I.'s of 3 and 5 respectively. […] These experiments established that T-lymphocytes from EBV-infected individuals, irrespective of the presence of antibody to EA, recognized a dominant epitope on p17.

[3] = system: anti-EA antibodies in human sera; test: ELISA, serological reactivity of human sera with p17 synthetic peptides; assay type: binding; conditions: for share of anti-EA-positive sera that reacted: 87 anti-EA antibody-positive sera (titer>160), 2 μg peptide per well; for No. Positive/No. Tested / No. Positive/No. Tested (%): sera 1:10
Protocol: as §1, §2
Studies were designed to determine the serological reactivity with the p17 synthetic epitopes. For this purpose, 87 anti-EA antibody-positive sera (titer>160) were tested in the ELISA against optimal pre-determined concentrations (2 μg per well) of the p17 synthetic peptides. The sera were obtained from 28 patients with African Burkift's lymphoma (ABL) collected during the Ghanian Burkitt Tumor Project, and from 28 North American patients with intermediate large cell, or high grade non-Hodgkin's lymphoma (NANHL). The donors included both HIV-positive and HIV-negative individuals. In addition, sera from 31 North American nasopharyngeal carcinoma (NANPC) patients were examined in this study (Pearson, G. R., et al., Cancer, 51:260-268, 1983). To validate the EA specificity of the serological reactions, the results with these sera were compared with results with 23 VCA and EA antibody-negative sera and 30 VCA-antibody-positive, EA-antibody negative sera. In contrast to the T-cell proliferation results, all three synthetic peptides reacted with the EA antibody-positive sera to varying degrees with p17.1 again being the dominant epitope. Approximately 60% of the anti-EA-positive sera reacted with p17.1, 48% with p17.2 and 23% with p17.3.
Seventy-one percent of the sera from ABL patients and 93% of the sera from patients with NANHL reacted with p17.1 as opposed to 23% of the sera from North American patients with NPC.

[4] = serum donors: Burkitt's lymphoma (African), EA titers >160
[5] = serum donors: Lymphoma (total), EA titers >160
[6] = serum donors: Nasopharyngeal carcinoma (North American), EA titers >160
[7] = serum donors: Non-Hodgkin's lymphoma (North American), EA titers >160
[8] = serum donors: Normal (VCA + EA-)
[9] = serum donors: Normal (VCA − EA-)

QNSETFTETWNRFITHTEHVD [17.1e, extension of p17.1 by the addition of several amino and carboxy-terminal amino acids]
ELISA result, peptides with and without extensions ([1]; sample no. 2241): 1.277 | ELISA result, peptides with and without extensions ([1]; sample no. 12498): 0.502 | ELISA result, peptides with and without extensions ([1]; sample no. 12836): 1.257

HQQGGWSTLIEDNIP [p17.3, synthetic peptide from 17 Kd early antigen (EA-R) region of EBV]
proliferation response [2]: None of these PBL preparations proliferated | 3H-thymidine Incorporation (cpm + S.D.) ([2]; 3.12 μg/ml): 194 ± 65 cpm | S.I. (stimulation index) ([2]; 3.12 μg/ml): 1.3 | 3H-thymidine Incorporation (cpm + S.D.) ([2]; 12.5 μg/ml): 132 ± 3 cpm | S.I. (stimulation index) ([2]; 12.5 μg/ml): 0 | 3H-thymidine Incorporation (cpm + S.D.) ([2]; 50 μg/ml): 190 ± 47 cpm | share of anti-EA-positive sera that reacted [3]: 23% | No. Positive/No. Tested [3, 4]: 9/28 | No. Positive/No. Tested (%) [3, 4]: 32% | No. Positive/No. Tested [3, 5]: 16/56 | No. Positive/No. Tested (%) [3, 5]: 29% | No. Positive/No. Tested [3, 6]: 4/31 | No. Positive/No. Tested (%) [3, 6]: 13% | No. Positive/No. Tested [3, 7]: 7/28 | No. Positive/No. Tested (%) [3, 7]: 25% | No. Positive/No. Tested [3, 8]: 0/30 | No. Positive/No. Tested (%) [3, 8]: 0% | No. Positive/No. Tested [3, 9]: 0/23

GMLEASEGLDGWIHQ [p17.2, synthetic peptide from 17 Kd early antigen (EA-R) region of EBV]
proliferation response [2]: None of these PBL preparations proliferated | 3H-thymidine Incorporation (cpm + S.D.) ([2]; 3.12 μg/ml): 157 ± 23 cpm | S.I. (stimulation index) ([2]; 3.12 μg/ml): 1.1 | 3H-thymidine Incorporation (cpm + S.D.) ([2]; 12.5 μg/ml): 278 ± 58 cpm | S.I. (stimulation index) ([2]; 12.5 μg/ml): 1.9 | 3H-thymidine Incorporation (cpm + S.D.) ([2]; 50 μg/ml): 277 ± 175 cpm | share of anti-EA-positive sera that reacted [3]: 48% | No. Positive/No. Tested [3, 4]: 13/28 | No. Positive/No. Tested (%) [3, 4]: 46% | No. Positive/No. Tested [3, 5]: 36/56 | No. Positive/No. Tested (%) [3, 5]: 64% | No. Positive/No. Tested [3, 6]: 6/31 | No. Positive/No. Tested (%) [3, 6]: 19% | No. Positive/No. Tested [3, 7]: 23/28 | No. Positive/No. Tested (%) [3, 7]: 82% | No. Positive/No. Tested [3, 8]: 0/30 | No. Positive/No. Tested (%) [3, 8]: 0% | No. Positive/No. Tested [3, 9]: 0/23

ARQKQKHPKKVKQAFNPLI [50.1e, extension of p50.10 by the addition of several amino and carboxy-terminal amino acids]
ELISA result, peptides with and without extensions ([1]; sample no. 2241): >2 | ELISA result, peptides with and without extensions ([1]; sample no. 12498): 0.946 | ELISA result, peptides with and without extensions ([1]; sample no. 12836): 1.718
